Experimental data published in patent publication US9549902B2, “Transdermal patch” (BOUTY S.P.A., priority 2005, dated 2017).

Key:
[1] = In vitro nitroglycerin permeation across mouse skin in Franz diffusion cells; format: in vitro ADME
Method: (§1) With the purpose of analysing the effect of sorbitan monooleate on nitroglycerin permeation kinetics, permeation of nitroglycerin from transdermal patches containing different concentrations of sorbitan monooleate was measured across mouse skin and human skin in Franz diffusion cells (produced by Hanson-Research).
(§2) The test was undertaken as described in the Italian Official Pharmacopoeia XI ed. and the European Pharmacopoeia 4th ed.
The permeation studies were conducted using Franz diffusion cells modified with an aperture 15 mm in diameter (membrane surface area 1.766 cm^2) and 7 ml cell volume. A phosphate buffer at pH 7 maintained under constant agitation was used as receptor fluid within the cell. […]
Within an hour of removal from the animal the skin samples were placed over the aperture of the cells to form a membrane and the transdermal patches to be analysed were each placed over a membrane and fastened with clips.
At determined intervals 300 μl of receptor solution were withdrawn and replaced each time with an equivalent volume of phosphate buffer.
The quantity of nitroglycerin in each sample was determined by means of HPLC analysis, using a 50:50 methanol/water mixture as mobile phase.
The results obtained for each patch were analyzed statistically using the t-test for independent samples. […]

[2] = In vitro nitroglycerin permeation across human skin (SCE membranes) in Franz diffusion cells; format: in vitro ADME
Method: as §1, §2
Samples of abdominal skin were obtained from the same donor by means of a surgical procedure.
Membranes consisting of the stratum corneum and epidermis (SCE membranes) were prepared by immersing the skin into distilled water at 60° C.±1° C. for one minute followed by their removal from the dermis. The membranes were dried in a dryer at about 25% ambient humidity, wrapped in aluminium sheets and maintained at a temperature of about −20° C.±1° C. until required. Dried membrane samples were rehydrated at ambient temperature by immersing in a saline solution for 16 hours. […]
The results obtained were analysed statistically using the t-test for independent samples.
The steady-state flux was then determined for each patch by linear regression of the cumulative quantity of drug permeated across the skin (μg/cm^2) as a function of time (h). […]

Action as absorption enhancer [1]: does not act as an absorption enhancer
Action as absorption enhancer [2]: does not act as an absorption enhancer
Substance: sorbitan monooleate
